Experimental data from a melting point compilation (Tetko et al.; mined from patent text by program, amines drawn as free bases though some values may be those of a salt).

| melting point | SMILES |
| --- | --- |
| 88 to 90 °C | Cc1ccc2c(c1)S(=O)(=O)NCN2CCF |
| 149 to 150 °C | CCOc1cc(C(=O)O)cc(S(N)(=O)=O)c1-c1ccccc1 |
| 109 to 112 °C | CC1CCCCN(C(=O)C2Cc3ccccc3N2c2ccc(=O)n(C)n2)C1 (stereo unspecified) |
| 149 to 150 °C | C=CC12CCc3cc(O)ccc3C1=CCC1(C)C(O)CCC21 (stereo unspecified) |
| 183 to 186 °C | Cc1cc2cc(CN(C)C)cnc2cc1NC(=O)c1ccc(-c2ccc(F)cc2)cc1 |
| 134 to 136 °C | CN(C(=O)C(C)(C)c1cc(C(F)(F)F)cc(C(F)(F)F)c1)c1cnc(N2CCOCC2)cc1-c1ccccc1Cl |
| 130 to 131 °C | CSc1ccc(C2OC(=O)NC2CO)cc1 (stereo unspecified) |
| 104 to 106 °C | Cn1c2c(ccc1=O)C(NCCc1ccc(C(F)(F)F)cc1)CCC2 (stereo unspecified) |
| 205 to 207 °C | CCNC(=O)Nc1ccc(-c2sc3c(c2CN(C)CCOC)c(=O)n(-c2ccc(N)cc2)c(=O)n3Cc2c(F)cccc2F)cc1 |
| 224 to 226 °C | Cc1ccccc1C(=O)Nc1ccc(C(=O)N2CCCC(O)c3cc(Cl)ccc32)c(C)c1 (stereo unspecified) |
| > 260 °C | N=C(N)c1ccc(-c2ccc(N3CCN(CCC(=O)O)S3(=O)=O)cc2)cc1 |
| 54 to 55 °C | CC1(C)CCCC(C)(C)N1Oc1ccc(C(F)(F)F)cc1[N+](=O)[O-] |
| 134 to 135 °C | COc1cc2c(cc1O)CCN(Cc1ccccc1)C2 |
| 68 to 70 °C | Cc1c(C(=O)Cl)cccc1[N+](=O)[O-] |
| 172 to 178 °C | CC=C(C)C1CCC2C3CC(=O)C4=CC(=O)CCC4(C)C3CCC12C (stereo unspecified) |
| 200 to 203 °C | Cc1c(N2CC(C)[C@@](N)(CF)C2)c(F)cc2c(=O)c(C(=O)O)cn([C@@H]3C[C@@H]3F)c12 (stereo partly specified) |
| 135 to 140 °C | O=C1CCC2CC(O)C(=O)N12 (stereo unspecified) |
| 194 to 196 °C | COC(=O)c1ccccc1S(=O)(=O)Cc1c(O)ccc2c1CCCC2=O |
| 83 °C | COc1cc(C)c(Cl)cc1C(C)=O |
| 206 to 210 °C | COc1cc2c(C)c(C#N)cnc2cc1OCc1cccnc1 |
| 150 to 152 °C | COc1ccc(I)cc1C(=O)O |
| 206 °C | CC(=O)OCC(=O)Nc1cccc(-c2nnc(C(c3ccc(Cl)cc3)c3c(Cl)ccc(-n4ncc(=O)[nH]c4=O)c3Cl)o2)c1C (stereo unspecified) |
| 204 to 205 °C | O=C(Nc1ccc(-n2nc(C(F)(F)F)cc2C(F)(F)F)cc1)c1ccccc1C(=O)c1ccccc1 |

| melting point | SMILES |
| --- | --- |
| 188 to 189 °C | CC(C)N1C(=O)[C@@H](CCO)O[C@H](c2ccccc2Cl)c2cc(Cl)ccc21 (relative stereo) |
| 166 to 167 °C | CN1CC=C(C2=Nc3cc(Cl)ccc3Oc3ccc(Cl)cc32)CC1 |
| 112 to 114 °C | COC(=O)c1cc(Cl)ccc1NS(=O)(=O)c1ccc(C)cc1 |
| 145 to 149 °C | CC1(C)CC(OC(=O)c2ccccc2)CC(C)(C)N1O |
| 113 to 114 °C | CN(CCN1CCCCC1)S(=O)(=O)c1cc([N+](=O)[O-])ccc1Sc1cc(Cl)cc(Cl)c1 |
| 268 °C | Cc1cccc(-c2coc3c(O)c(O)ccc3c2=O)c1 |
| 222 to 224 °C | COc1cc(N)c(Cl)cc1C(=O)NC1CCN(CC2CCN(C(N)=O)CC2)CC1 |
| 161 °C | COc1nc(C)nc(NC(=O)NS(=O)(=O)c2c(C)cccc2OCCF)n1 |
| 65 to 115 °C | CC(=O)N(O)Cc1ccc2c(c1)OCc1ccccc1C2=O |
| 114 to 116 °C | CC(C)(C)OC(=O)C1CC(c2ccc(N)cc2)CCN1 (stereo unspecified) |
| 250 °C | COc1ccc2c(c1)c(=O)[nH]c1c2c2ccccc2n1C |
| 173 to 175 °C | COc1ccc(N2CCN(CC(O)COc3cccc4cc(C(C)=O)oc34)CC2)cc1 (stereo unspecified) |
| 232 to 234 °C | CN(C)C=NC(=O)c1ccc(C(=O)N2Cc3cccn3Cc3ccccc32)cc1 |
| 153 to 155 °C | COc1ccc2c(c1)c(Cc1cc(=O)n(C3CCCC3)[nH]1)c(C)n2C(=O)c1ccc(Cl)cc1 |
| 193 to 196 °C | O=C1CC(c2cccc3ccccc23)c2ccc(O)cc2O1 (stereo unspecified) |
| 191 to 192 °C | CCC(=O)NS(=O)(=O)c1ccc(C2=C(c3ccccc3)C(=O)C(C)(C)O2)cc1Cl |
| 205 to 207 °C | CCOC(=O)c1ccc2c(c1)C(C)(Cl)C(=S)N2 (stereo unspecified) |
| 347 to 349 °C | O=c1[nH]c(Nc2cccc(C(F)(F)F)c2)nc2c1ncn2CCO |
| 289 to 291 °C | O=c1[nH]ncc2[nH]c(-c3ccc(OC(F)F)c(OC4CCC4)c3)cc12 |
| 244 to 246 °C | CC(=O)Nc1nc2c(Oc3cc(N4CCN([C@H](C)c5ccc(F)cc5)CC4)ncn3)cccc2s1 |
| 283 to 284 °C | NC(=O)[C@@H]1[C@H](Nc2c(Br)cnc3[nH]c(-c4ccc(N5CCOCC5)cc4)nc23)[C@H]2C=C[C@@H]1C2 |
| 207 to 208 °C | CCCCN1C(=O)CN2C(=O)CN(c3ccc(C(C)C)cc3Br)c3nc(C)nc1c32 |

More lines, now with the values behind:

| SMILES | melting point |
| --- | --- |
| O=C1CN(C(c2ccccc2)c2ccccc2)N1 | 160 to 163 °C |
| CCCc1nc(Cl)c(C=O)n1Cc1ccc(-c2ccccc2-c2nnn[nH]2)cc1 | 165 to 167 °C |
| CCOC(=O)CC(=O)C=Cc1ccc(OC)cc1 | 69 °C |
| Cc1cccc(-c2cc3cnc(N)nc3nc2N)c1C | 330 to 333 °C |
| Nc1nc(Cl)c(C(F)(F)F)cc1Cl | 110 to 112 °C |
| CN(C)C(=O)COC1c2ccccc2CCc2ccccc21 | 73 to 75 °C |
| O=C(Nc1ccc(Cl)c(C(F)(F)F)c1)Nc1ccccc1P(=O)(O)O | 153 to 157 °C |
| CCCCOP(=O)(CCCCC1(C(=O)NCCC)c2ccccc2-c2ncccc21)OCCCC (stereo unspecified) | 93.5 to 96 °C |
| O=C1NC(=O)c2c(Cl)cccc21 | 236 to 238 °C |
| N#Cc1ccc(-c2ccc(-c3ccc(C#N)cn3)o2)cc1 | 301 to 302 °C |
| CS(=O)(=O)c1ccc(-c2ccccc2-c2ccc(F)cc2)cc1 | 178 to 179 °C |
| Oc1ccc(C(O)CNCCCn2cnc3ccccc32)cc1 (stereo unspecified) | 146 to 148 °C |
| CCCN(C(=O)CBr)c1ccc([N+](=O)[O-])cc1C(=O)c1ccccc1 | 122 °C |
| CC(=O)Nc1nc2c(Oc3cc(-c4ccc(C(F)(F)F)cc4I)ncn3)cccc2s1 | 242 to 243 °C |
| O=[N+]([O-])c1cccc(-c2nnc(Nc3cccc(SCCCc4ccccc4)c3)s2)c1 | 169 to 171 °C |
| Cc1onc(-c2ccccc2)c1C(=O)N(CCN(C)C)c1ccccc1 | 88 to 89 °C |
| CN(C)CCCCCCCCCOc1ccc2oc(-c3ccccc3)cc(=O)c2c1 | 52 to 53 °C |
| O=Cc1cccc(Oc2ccccc2)c1F | 75 to 77 °C |
| Nc1nnc2c3c(c(Cl)nn12)CCCC3 | 224 to 225 °C |

| SMILES | melting point |
| --- | --- |
| Cc1nc2ccc(C)c(Sc3ccncc3)c2c(=O)[nH]1 | 235 to 238 °C |
| CCCCNC(=O)NCCCCCCCCCCCCN | 97 °C |
| O=[N+]([O-])c1ccc2ncnc(Nc3ccc4ncccc4c3)c2c1 | > 300 °C |
| CCSc1cccc(OC(F)(F)F)c1S(N)(=O)=O | 146 °C |
| CC(C)Cn1nccc1-c1nn(-c2cccc(C(F)(F)F)c2)ccc1=O | 120 to 121 °C |
| CC(C)=NOc1ccc([N+](=O)[O-])cc1 | 104 to 106 °C |
| CCc1c(-c2cccnn2)ssc1=S | 130 °C |
| C=CCSc1nc2ccc(OCC)cc2[nH]1 | 147 to 149 °C |
| O=C(O)CS(=O)(=O)c1cc(NS(=O)(=O)c2cccs2)c2ccccc2c1O | 190 to 192 °C |
| COc1ccc(C=Cc2ccc([N+](=O)[O-])cc2)cc1C | 109 to 111 °C |
| CCC(=O)NC1C=CC(CO)C1 (stereo unspecified) | 67 to 68 °C |
| Clc1ccc(CCN2CCC3(CC2)Oc2ccccc2Cn2cccc23)cc1 | 116 to 118 °C |
| NC(=O)c1ncn2c1[C@@H]1CCN1C(=O)c1c-2ccc(F)c1Cl | 296 to 298 °C |
| N#Cc1ccc(CCc2ccc(CN3C(=O)c4ccccc4C3=O)cc2)cc1 | 194 to 197 °C |
| O=C(O)C(O)c1ccc2ccccc2c1 (racemic) | 164 to 166 °C |
| COc1ccccc1OCCCCCOc1ccc(C(=N)N)cc1 | 96 to 98 °C |
| O=C(CCc1ccc([N+](=O)[O-])cc1)NCCO | 122 to 125 °C |
| CC(C)(CNc1ccnc2cc(Cl)ccc12)NCc1cccc(Cl)c1 | 125 to 126 °C |
| Oc1ccc(-c2nc(-c3ccc(Sc4ccccc4)cc3)nc(-c3ccc(O)cc3O)n2)c(O)c1 | > 250 °C |

| SMILES | melting point |
| --- | --- |
| CCC(CC)(CC(=O)O)C(=O)O | 106 to 109 °C |
| COc1ccc(C2CCc3cc(OC)ccc3C2CCCn2ccnc2)cc1 (stereo unspecified) | 67 °C |
| CC(C)n1nc(-c2sc(NC(=O)c3c(Cl)cccc3Cl)nc2-c2ccccc2)ccc1=O | 248 to 249 °C |
| N#Cc1nn(-c2c(Cl)cc(C(F)(F)F)cc2Cl)c(N)c1OC(F)F | 152 to 154 °C |
| Fc1ccc(N2CC3CCC2CN3Cc2ccccc2)cc1 (stereo unspecified) | 74 to 76 °C |
| COC(C)(CCCCC(C)(C)O)c1cccc(C=Cc2cc(O)cc(O)c2)c1 (stereo unspecified) | 65 to 75 °C |
| CCCNC(=O)c1ccc(CCN2CC=C(c3c[nH]c(-c4ccc(F)cc4)c3-c3ccncc3)CC2)cc1 | 227 to 230 °C |
| COC(=O)C(C#N)=CC(C)=CN(C)C | 163 to 164 °C |
| O=C(O)c1cc2cc(C(F)(F)F)cnc2n1Cc1ccncc1 | 302 to 303 °C |
| C=CCN(CC=C)c1nc(NC(=O)C=C)n2oc(=O)nc2n1 | 157 to 161 °C |
| CC(C)(CO)CCNC(=O)OC(C)(C)C | 75.5 to 76.5 °C |
| CN(C)C(=O)Nc1ccc(OCc2nc(Cl)ccc2Cl)cc1 | 162 °C |
| NS(=O)(=O)c1ccc(-c2cccc(-c3nc(-c4ccc(F)c(F)c4)cc(C(F)(F)F)n3)c2)s1 | 238 °C |
| CN1c2ccc(Cl)cc2C(c2ccccc2Cl)=Nc2cccnc21 | 150 to 152 °C |
| CN(C)C(=O)Sc1ccccc1C(=O)c1ccccc1C#N | 130 °C |
| Fc1ccc(C=Cc2nc(CNc3ccc(CCCCn4ccnn4)cc3)co2)c(C(F)(F)F)c1 | 109 to 111 °C |
| C#CCN1CCC(C(C)(C)C)CC1 | 48 to 49 °C |
| c1cnc(-c2nc(C3CC3)no2)cn1 | 61 to 64 °C |
